Source: US10232041B2, “Combination of lenalidomide and polypeptide construct, and uses thereof” (Teva Pharmaceuticals Australia Pty Ltd, priority 2014, dated 2019)
“Also recorded” adds a separate entry of the source.

Key:
[1] = test system: H929 tumor cells; assay: H929 human multiple myeloma xenograft, pomalidomide study (Example 3); type: in vivo, SCID mice; conditions: pomalidomide 2.5 mg/kg ip qd × 21; constructs 40 μg/dose ip biwk × 4; FIG. 5
Experimental: Pomalidomide, like lenalidomide, is a derivative and an analog of thalidomide with increased potency against multiple myeloma and reduced toxicity.
In brief, sixty female CB.17 SCID mice were injected with 1×10^7 H929 tumor cells subcutaneously in the right flank. […] The endpoint for the study was when tumor volume reached 2000 mm^3. Cohorts were divided as follows, as summarized in Table 6: Group 1, Vehicle (PBS); Group 2, Pomalidomide alone (2.5 mg/kg); Group 3, Anti-CD38-attenuated IFNα- (40 ug/dose); Group 4, Anti-isotype-IFNα-attenuated (40 ug/dose), Group 5, Pomalidomide (2.5 mg/kg) plus anti-CD38-attenuated IFNa (40 μg/dose); and Group 6, Pomalidomide (2.5 mg/kg) plus anti-isotype-attenuated IFNα- (40 μg/dose), Pomalidomide administration started at day 1 and ended on day 21; antibody-interferon fusion construct administration started on day 1 and ended on day 28.

[2] = test system: NCI-H929 multiple myeloma cells; assay: NCI-H929 multiple myeloma xenograft, anti-CD38 antibody-attenuated IFN alpha-2b construct + lenalidomide (Example 1); type: in vivo, SCID mice; conditions: IFN-alpha 0.5 mg/kg; for tumor growth / tumor volume as a function of time (in words): construct 2.5 mg/kg ip biweekly (suboptimal), lenalidomide 2.5 mg/kg or 25 mg/kg daily for 21 days ip, FIG. 1, FIG. 2; for time at which tumor growth initiated and accelerated: after commencing treatment, construct 2.5 mg/kg ip biweekly, lenalidomide 2.5 mg/kg
Experimental: When tumors reached an average size of 200-300 mm^3, mice were pair matched into different groups and then treated with vehicle (PBS), free-non-attenuated interferon alpha (IFN-alpha) at 0.5 mg/kg, a suboptimal dose of an anti-CD38 antibody-IFN alpha-2b-145D construct (2.5 mg/kg, molar equivalent to 0.5 mg/kg IFN; ip, biweekly, which was determined by previous in vivo efficacy studies), an isotype-matched antibody-IFN alpha-2b-145D construct (isotype matched to the anti-CD38 antibody, with no anti-CD38 specificity), lenalidomide alone (2.5 mg/kg), a combination of free-non-attenuated interferon alpha and lenalidomide, a combination of lenalidomide and a suboptimal dose of the anti-CD38 antibody-IFN alpha-2b-145D construct, or a combination of the isotype control antibody-IFN alpha-2b-145D construct and lenalidomide. The amount of the anti-CD38 antibody-attenuated IFN alpha-2b construct administered was normalized to an IFN-alpha molar equivalent of the 0.5 mg/kg of free interferon administered to the animals.

[3] = test system: H929 multiple myeloma tumor cells
Experimental: In this experiment, 8-12 week-old female CB.17 severe combined immunodeficient (SCID) mice were implanted with 1×10^7 H929 multiple myeloma tumor cells in 50% Matrigel® subcutaneously in the flank. Tumor volume was measured by calipers biweekly. When tumors reached an average size of 170-350 mm^3, mice were randomized and treatment commenced. An animal was terminated if the tumor grew to a volume of greater than 2000 mm^3 before the study was completed at day 60.
Ten animals were assigned to each of groups 1 to 10. Treatment may cause “partial regression” (PR) or complete regression (CR) of the tumor in an animal. In a PR response, the tumor volume was 50% or less of its Day 1 volume for three consecutive measurements during the course of the study, and equal to or greater than 13.5 mm^3 for one or more of these three measurements. In a CR response, the tumor volume was less than 13.5 mm^3 for three consecutive measurements during the study. Any animal with a CR response at the end of the study was additionally classified as a tumor free survivor (TFS).

[4] = Group 2: lenalidomide 25 mg/kg ip qd × 21, ten animals per group

| Compound | tumor growth / tumor shrinkage (in words) [1] | tumor growth / tumor volume as a function of time (in words) [2] | time at which tumor growth initiated and accelerated [2] | MTV Day 60 (Median Tumor Volume at study end) ([3]; Group 2: lenalidomide 25 mg/kg ip qd × 21) [mm^3] | (n) number of surviving animals used for MTV calculation, Day 60 [3, 4] | CR No. of Complete Regressions [3, 4] | PR No. of Partial Regressions [3, 4] | TFS No. of Tumor Free Survivors [3, 4] | tumor growth (in words) ([3]; sub-optimal dosage of construct, lenalidomide 25 mg/kg, Table 5 and FIG. 3) |
| --- | --- | --- | --- | --- | --- | --- | --- | --- | --- |
| Nc1cccc2c1C(=O)N(C1CCC(=O)NC1=O)C2=O (racemic) [Pomalidomide, (RS)-4-Amino-2-(2,6-dioxopiperidin-3-yl)isoindole-1,3-dione] | did not substantially slow tumor growth | – | – | – | – | – | – | – | – |
| interferon alpha | – | delayed tumor growth relative to the vehicle control | within two weeks to about a month | – | – | – | – | – | – |
| Nc1cccc2c1CN(C1CCC(=O)NC1=O)C2=O (racemic) [lenalidomide, (RS)-3-(4-Amino-1-oxo 1,3-dihydro-2H-isoindol-2-yl)piperidine-2,6-dione] | – | delayed tumor growth relative to the vehicle control; also recorded: delayed the onset of rapid tumor growth | within two weeks to about a month | 726 | 1 | 0 | 1 | 0 | delayed tumor growth relative to vehicle control |
